Converted amounts (≈) assume the structure as drawn. “Also recorded” adds a separate entry of the source.
Legend:
[1] = Solubility in simulated intestinal fluid; type: physicochemical; details: 0.5 wt % SIF
From the text: 1 compared to crystalline otenaproxesul in simulated intestinal fluid (SIF).

[2] = tested on: liver adverse effects; test: Clinical study of three crystalline otenaproxesul regimens, liver safety; type: in vivo, human; details: 1500 mg single; 1500 mg + 100 mg Days 2-5; 2000 mg single
Protocol: Data were collected over a 312-hour period at protocol-specified intervals. Sampling was most frequent during the first 2 hours post drug administration. Treatment regimens were (i) otenaproxesul single dose 1500 mg (Total 1500 mg); (ii) crystalline otenaproxesul Day 1 single dose 1500 mg plus 100 mg on Days 2-5 (Total 1900 mg) or (iii) crystalline otenaproxesul single dose 2000 mg (Total 2000 mg).

[3] = H2S release / formulation stability in simulated gastric fluid; details: SGF, 1 mg/ml, 37° C., 5% CO2
Protocol: Assay design: 1 mg of exemplary ASD no. 1 and crystalline otenaproxesul were weighed in separate glass vials. SGF was added to prepare a 1 mg/ml solution which was incubated at 37° C. with 5% CO2. 120 μl was removed at 0, 0.5, 1, 2, 3, 4 and 8 hrs and quenched in DPD and FeCl3 solutions. A blank and 10 mM stock was also analyzed. The methylene blue was analyzed using HPLC.
As H2S is volatile in the acidic form the calibration curve was not plotted, however H2S release was compared to T0.

[4] = tested on: osteoarthritis of the knee; test: Phase 2b study, change in WOMAC subscale scores in osteoarthritis of the knee; type: in vivo, human; details: for WOMAC pain, stiffness and DPDA subscale scores: Baseline to Day 14
Protocol: This study evaluated the efficacy of a 14-day dosing regimen of crystalline otenaproxesul at doses of 150 mg, 200 mg and 250 mg compared to placebo in reducing osteoarthritis knee pain (a chronic pain condition) as measured by changes in the post-treatment Western Ontario and McMaster Universities Osteoarthritis Index (WOMAC) subscale pain score relative to each patient's pretreatment baseline WOMAC assessment. In patients with bilateral knee osteoarthritis, the most painful knee (index knee) or if in both knees of equal pain, then 1 index knee was noted and has been used for the WOMAC assessments throughout the study. The three doses were selected based on state-of-the-art knowledge of efficacy and safety for otenaproxesul at the time of the trial.
This study was a double-blind, placebo-controlled Phase 2B study that explored 3 different doses (150 mg, 200 mg, and 250 mg) of orally administered crystalline otenaproxesul in male and female patients diagnosed with osteoarthritis of the knee. Patients were randomly assigned in a 2:2:1:1 allocation ratio to otenaproxesul 250 mg, 200 mg, 150 mg, or placebo.
Study visits occurred on Day 1, Day 4, and Day 14 of the 14-day treatment phase and included WOMAC evaluations, blood samples for thromboxane B2 TXB2 and pharmacokinetic (PK) testing. The safety of otenaproxesul was evaluated through monitoring for adverse events (AEs), changes in physical examinations, vital signs measurements, and clinical laboratory evaluations.
The efficacy of treatment with otenaproxesul was assessed by measuring the change in the WOMAC VAS version 3.1 subscale pain, stiffness, and difficulties performing daily activities (DPDA) scores after 14 days relative to each patient's pretreatment baseline WOMAC score.
All patients who received 1 dose of study drug (otenaproxesul or placebo) and had at least 1 post-baseline WOMAC pain subscale score observation were included in the primary population for the analysis of efficacy (modified-intent-to-treat population [mITT]). Patients who met the criteria for the primary efficacy analyses and had no major protocol violations that could have impacted the assessment of efficacy (per protocol population [PP]) were evaluated as a supportive analysis. The primary and secondary endpoints were analyzed using a maximum likelihood mixed model repeated measure (MMRM). The model included treatment, visit, baseline WOMAC pain score, and treatment-by-visit interaction as fixed effects, and patient as a random effect. Dose-response analysis was conducted by using a contrast statement to the least squares (LS) means on Day 14 between the dose levels of otenaproxesul and placebo. For patients who received rescue medication within 12 hours before an efficacy assessment, the assessments at that visit were disregarded and considered missing. Analysis of the WOMAC pain subscale score, including the MMRM analysis and descriptive summary, were also presented by sex (male, female) in a subgroup analysis.

[5] = tested on: ALT and AST; test: Analysis of liver transaminase elevations over the clinical studies; type: in vivo, human
Protocol: These LTEs were detected after the patients had completed their full treatment course.
When liver safety findings are observed, cumulative naproxen metabolite plasma drug exposure over the prescribed treatment period exceeded 4000 μg*hr/mL.

[6] = tested on: liver transaminases; test: 28-day PK/PD and AME clinical study in healthy older adults, liver transaminase elevations; type: in vivo, human; details: 100 mg cohort, full drug administration period
Protocol: The study was designed in part on the observation that across the otenaproxesul treatment groups, treatment-related >3×ULN (“upper limit of normal”) ALT and/or AST transaminase levels were noted (almost exclusively after the 14-day dosing interval) in 9.8% (6/61) of patients in the 150 mg arm, 7.2% (9/125) of patients in the 200 mg arm and 12.9% (17/132) patients in the 250 mg arm, with this issue being substantially biased towards females),
In this clinical trial, 28-day human safety/PK data was generated to complement the 14-day DRF data from Example 2. Biomarker data/dose (e.g., thromboxane B2) were also generated using standard ELISA assay kits.
Otenaproxesul was supplied as 75 mg, 100 mg and 125 mg, brown, film-coated tablets and was in crystalline form. Patients were instructed to take 1 tablet of otenaproxesul in the morning after an overnight fast. Food intake was restricted until at least 30 minutes after the morning dose.
The study enrolled a total of 42 subjects on either a 75 mg or 100 mg dose per day of otenaproxesul, of whom 35 had completed the 28-day drug administration period, with seven subjects having been administered the drug for 21 days before the study was paused. […]

Compound: COc1ccc2cc([C@H](C)C(=O)Oc3ccc(C(N)=S)cc3)ccc2c1 [crystalline otenaproxesul]
- solubility at 2 h [1]: 51 µg/mL (≈ 140 µM)
- liver adverse effects [2]: No subjects in any of the three treatment arms exhibited any liver adverse effects
- Peak area of methylene blue (H2S release) ([3]; 0 hrs): 1.6
- Peak area of methylene blue (H2S release) ([3]; 0.5 hrs): 2.4
- Peak area of methylene blue (H2S release) ([3]; 1 hr): 2
- Peak area of methylene blue (H2S release) ([3]; 2 hrs): 2.3
- Peak area of methylene blue (H2S release) ([3]; 3 hrs): 1.8
- Peak area of methylene blue (H2S release) ([3]; 4 hrs): 1.9
- Peak area of methylene blue (H2S release) ([3]; 8 hrs): 2.4
- WOMAC pain, stiffness and DPDA subscale scores [4]: clinically and statistically significant improvement

Compound: COc1ccc2cc([C@H](C)C(=O)Oc3ccc(C(N)=S)cc3)ccc2c1 [otenaproxesul, (S)-4-carbamothioylphenyl 2-(6-methoxynaphthalen-2-yl) propanoate]
- adverse liver effects (transient elevations of liver transaminases) ([5]; multiple dose 150, 200 or 250 mg for seven days): no observed adverse liver effects
- liver transaminase elevations ([5]; multiple dose 150, 200 or 250 mg, 14 days or less): not detected
- cumulative plasma naproxen exposure at which LTEs are not observed ([5]; over the prescribed treatment): ≤ 4000 µg·h/mL
- cumulative naproxen plasma exposure when liver safety findings are observed ([5]; over the prescribed treatment period): exceeded 4000 μg*hr/mL
- patients with dose-related liver transaminase elevation ([5]; phase 2 study): approximately 10%
- liver transaminase elevations ([5]; single dose 25 mg to 2000 mg (crystalline)): not detected; also recorded: no observed adverse liver effects
- subjects with liver transaminase elevations exceeding five times the upper limit of normal [6]: Three
- reduction in pain, stiffness and DPDA ([4]; 150 mg daily): positive reduction in pain, stiffness and DPDA
- actual mean change in WOMAC stiffness score, Baseline to Day 14 ([4]; 150 mg once daily, 95% CI −60.3, −36.6): −48.4 mm
- decrease in WOMAC DPDA score vs placebo ([4]; 150 mg, Day 14): not statistically significant
- decrease in WOMAC pain score vs placebo ([4]; 150 mg, Day 14): not statistically significant
- LS mean change in WOMAC stiffness score, Baseline to Day 14 ([4]; 200 mg once daily, 95% CI −62.6, −46.3): −54.4 mm
- LS mean change in WOMAC pain score, Baseline to Day 14 ([4]; 200 mg once daily, 95% CI −159.3, −120.6): −139.9 mm
- LS mean change in WOMAC DPDA score, Baseline to Day 14 ([4]; 200 mg once daily, 95% CI −502.9, 374.1 (so in the source)): −438.5 mm
- LS mean change in WOMAC stiffness score, Baseline to Day 14 ([4]; 250 mg once daily, 95% CI −63.5, −47.8): −55.6 mm
- LS mean change in WOMAC pain score, Baseline to Day 14 ([4]; 250 mg once daily, 95% CI −154.0, −116.6): -135 mm
- LS mean change in WOMAC DPDA score, Baseline to Day 14 ([4]; 250 mg once daily, 95% CI −475.1, −350.7): −412.9 mm
- patients having at least a 30% reduction in WOMAC pain scores ([4]; 250 mg, Day 14): 63.4%
- patients having at least a 50% reduction in WOMAC pain scores ([4]; 250 mg, Day 14): 43.5%
- WOMAC pain, stiffness and DPDA subscale scores [4]: clinically and statistically significant improvement
- decreases in WOMAC stiffness and DPDA scores ([4]; men, 200 mg, Day 14): reached statistical significance
- decreases in WOMAC pain, stiffness and DPDA scores vs placebo ([4]; women, 250 mg and 200 mg, Day 14): reached statistical significance
